From patent publication US12486250B2, “Muscarinic receptor 4 antagonists and methods of use” (Neurocrine Biosciences, Inc., priority 2019, dated 2025)

Tests used:
human M1 receptor = molecular target: T1, human M1 receptor (Homo sapiens, UniProt P11229); assay: Radioligand ([3H]N-methylscopolamine) binding assay, CHO cell membranes; settings: 1.5 nM tritiated N-methylscopolamine, 90 minutes at 37° C.; read-out: Binding affinity (Ki) M1
T1 construct: expressed in transfected cells; host or cells: CHO cells
T1 sequence (P11229 1-460): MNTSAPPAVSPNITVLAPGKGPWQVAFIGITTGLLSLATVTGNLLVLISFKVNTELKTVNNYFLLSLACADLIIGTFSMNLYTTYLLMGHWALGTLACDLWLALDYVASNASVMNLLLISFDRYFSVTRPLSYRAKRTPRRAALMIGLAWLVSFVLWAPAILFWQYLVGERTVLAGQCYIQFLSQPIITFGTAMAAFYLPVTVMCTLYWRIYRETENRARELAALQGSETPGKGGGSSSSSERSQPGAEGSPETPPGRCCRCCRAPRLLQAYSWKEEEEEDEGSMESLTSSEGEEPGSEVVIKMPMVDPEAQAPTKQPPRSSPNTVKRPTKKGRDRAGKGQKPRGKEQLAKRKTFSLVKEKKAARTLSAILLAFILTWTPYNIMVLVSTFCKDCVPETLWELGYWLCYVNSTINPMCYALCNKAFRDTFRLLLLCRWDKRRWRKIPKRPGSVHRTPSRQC
Experimental: (§1) Binding affinity (Ki) of compounds was measured by inhibition of radioligand binding to membranes from CHO cells expressing human M1, M2, M3, M4 and M5 receptors. Membranes were prepared by nitrogen cavitation and differential centrifugation as previously described (Hoare et al., Mol. Pharmacol. 2003 March; 63(3): 751-65). The radioligand employed was tritiated N-methylscopolamine, used at a concentration of 1.5 nM. A dose-response of twelve concentrations of compound was used, ranging from […]. The assay buffer was 50 mM HEPES, 100 mM NaCl, 5 mM MgCl2, 1 mM ethylenediaminetetraacetic acid, pH-adjusted to pH 7.4. Membranes, radioligand and compound were incubated together for 90 minutes at 37° C., in a total volume of 150 μL in a 96-well plate. Receptor-bound radioligand was then collected by harvesting the assay over glass fiber filters pretreated with polyethylenimine to trap the cell membranes, using rapid vacuum filtration. Harvesting and radioactivity counting was conducted as previously described (see, e.g., Hoare et al., Mol. Pharmacol. 2003 63(3):751-65); Erratum at Mol. Pharmacol. 2005 July; 68(1): 260).

human M2 receptor = molecular target: T2, human M2 receptor (Homo sapiens, UniProt P08172); assay: as above; settings: 1.5 nM tritiated N-methylscopolamine, 90 minutes at 37° C.; read-out: Binding affinity (Ki) M2
T2 construct: expressed in transfected cells; host or cells: CHO cells
T2 sequence (P08172 1-466): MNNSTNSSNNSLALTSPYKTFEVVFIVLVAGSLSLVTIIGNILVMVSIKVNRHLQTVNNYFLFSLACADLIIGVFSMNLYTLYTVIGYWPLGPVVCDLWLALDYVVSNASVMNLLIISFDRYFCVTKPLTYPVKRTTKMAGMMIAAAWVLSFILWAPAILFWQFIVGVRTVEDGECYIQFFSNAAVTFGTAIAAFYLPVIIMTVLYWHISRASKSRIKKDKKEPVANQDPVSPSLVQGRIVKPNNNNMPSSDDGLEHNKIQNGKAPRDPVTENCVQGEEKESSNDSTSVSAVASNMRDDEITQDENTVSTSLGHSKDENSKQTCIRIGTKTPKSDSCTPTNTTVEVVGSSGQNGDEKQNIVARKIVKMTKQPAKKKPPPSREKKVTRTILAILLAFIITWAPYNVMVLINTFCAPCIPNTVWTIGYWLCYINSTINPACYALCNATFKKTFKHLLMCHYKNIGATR
Experimental: as §1

human M3 receptor = molecular target: T3, human M3 receptor (Homo sapiens, UniProt P20309); assay: as above; settings: 1.5 nM tritiated N-methylscopolamine, 90 minutes at 37° C.; read-out: Binding affinity (Ki) M3
T3 construct: expressed in transfected cells; host or cells: CHO cells
Experimental: as §1

human M5 receptor = molecular target: T4, human M5 receptor (Homo sapiens, UniProt P08912); assay: as above; settings: 1.5 nM tritiated N-methylscopolamine, 90 minutes at 37° C.; read-out: Binding affinity (Ki) M5
T4 construct: expressed in transfected cells; host or cells: CHO cells
T4 sequence (P08912 1-532): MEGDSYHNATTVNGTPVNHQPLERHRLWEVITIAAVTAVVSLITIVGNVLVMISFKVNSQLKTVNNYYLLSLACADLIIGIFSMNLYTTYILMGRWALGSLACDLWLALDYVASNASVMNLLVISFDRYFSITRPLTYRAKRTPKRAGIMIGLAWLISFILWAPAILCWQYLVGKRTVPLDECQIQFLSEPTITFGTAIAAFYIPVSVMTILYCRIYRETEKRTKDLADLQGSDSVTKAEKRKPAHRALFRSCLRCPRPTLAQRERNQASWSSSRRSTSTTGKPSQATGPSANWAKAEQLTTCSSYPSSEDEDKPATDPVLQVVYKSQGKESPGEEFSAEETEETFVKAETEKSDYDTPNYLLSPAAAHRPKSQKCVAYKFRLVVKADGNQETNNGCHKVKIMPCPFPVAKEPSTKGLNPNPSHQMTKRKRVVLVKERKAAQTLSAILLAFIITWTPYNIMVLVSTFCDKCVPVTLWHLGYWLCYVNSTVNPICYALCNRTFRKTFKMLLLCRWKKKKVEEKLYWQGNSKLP
Experimental: as §1

[1] = molecular target: T5, MDR1 (Multidrug resistance protein 1) (Homo sapiens, UniProt P08183); assay: MDCK-MDR1 assay (apparent permeability and efflux ratio); assay type: in vitro ADME; settings: for Papp A→B at 2 h, 5 µM / Papp B→A at 2 h, 5 μM: MDCK-MDR1, pH 7.4, 2 hours at 37° C.; for Papp A→B at 2 h, 5 µM: apical to basolateral; for Papp B→A at 2 h, 5 μM: basolateral to apical; for efflux ratio at 2 h, 5 µM: MDCK-MDR1, pH 7.4, Papp B>A/Papp A>B
T5 construct: host or cells: MDCK cells
Experimental: Apparent permeability and efflux ratios were generated by Absorption Systems LLP, Exton, PA MDCK cells transfected with human MDR1 (Multidrug resistance protein 1) were grown as monolayers on microporous membranes in 12-well assay plates. Each compound was evaluated at a single concentration equal to 5 μM. The assay buffer consisted of Hanks' balanced salt solution pH 7.4 containing 10 mM HEPES and 15 mM glucose. Test article diluted in assay buffer was dosed to the apical chambers of cell monolayer plates to determine apical to basolateral (A to B) permeability. Basolateral to apical (B to A) permeability was determined by addition of dosing solution to the basolateral chambers. […] Cell monolayers dosed with test article were incubated for 2 hours at 37° C., 5% CO2 in a humidified incubator. Samples were collected from both donor and receiver chambers at 2 hours then prepared for LC-MS/MS analysis using electrospray ionization. Duplicate measurements of A to B and B to A permeability were collected for each compound. Efflux ratio was calculated using the following formula: Papp B>A/Papp A>B. Controls were incorporated to ensure cell monolayer integrity (lucifer yellow) and activity of MDR1 protein (digoxin).

T3 sequence (P20309 whole entry): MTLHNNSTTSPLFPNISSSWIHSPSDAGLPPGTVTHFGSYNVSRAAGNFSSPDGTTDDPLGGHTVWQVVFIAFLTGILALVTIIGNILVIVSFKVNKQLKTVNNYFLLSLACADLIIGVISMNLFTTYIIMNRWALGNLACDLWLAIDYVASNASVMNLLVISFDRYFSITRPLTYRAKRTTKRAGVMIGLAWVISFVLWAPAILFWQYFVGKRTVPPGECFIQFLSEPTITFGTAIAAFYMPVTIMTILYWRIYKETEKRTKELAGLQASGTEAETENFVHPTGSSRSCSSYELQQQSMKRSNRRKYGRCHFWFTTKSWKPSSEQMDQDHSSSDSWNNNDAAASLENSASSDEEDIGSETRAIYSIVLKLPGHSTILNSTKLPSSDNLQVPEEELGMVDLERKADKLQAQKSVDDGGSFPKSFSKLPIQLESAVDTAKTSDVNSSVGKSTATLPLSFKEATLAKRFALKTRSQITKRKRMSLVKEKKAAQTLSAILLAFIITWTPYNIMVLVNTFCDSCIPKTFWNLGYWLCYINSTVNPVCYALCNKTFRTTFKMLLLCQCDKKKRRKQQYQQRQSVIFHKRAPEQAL

Ki (human M1 receptor) | Ki (human M2 receptor) | Ki (human M3 receptor) | Ki (human M5 receptor) | Papp A→B at 2 h, 5 µM [1] | Papp B→A at 2 h, 5 μM [1] | efflux ratio at 2 h, 5 µM [1] | SMILES
≥ 1000 nM | 1860 nM | ≥ 1000 nM | ≥ 1000 nM | 15 ×10⁻⁶ cm/s | 21.3 ×10⁻⁶ cm/s | 1.42 | C[C@@H]1CN(c2cnc(C(F)(F)F)cn2)C[C@H](C)N1C(=O)OCCC1CCN(Cc2ccccc2)CC1 [Compound 1, 2-(1-benzylpiperidin-4-yl)ethyl (2R,6S)-2,6-dimethyl-4-[5-(trifluoromethyl)pyrazin-2-yl]piperazine-1-carboxylate]
≥ 1000 nM | 271 nM | ≥ 1000 nM | ≥ 1000 nM | 17.5 ×10⁻⁶ cm/s | 24.1 ×10⁻⁶ cm/s | 1.38 | C[C@@H]1CN(c2cnc(C(F)(F)F)cn2)C[C@@H](C)N1C(=O)OCCC1CCN(Cc2ccccc2)CC1 [Compound 2, 2-(1-benzylpiperidin-4-yl)ethyl (2R,6R)-2,6-dimethyl-4-[5-(trifluoromethyl)pyrazin-2-yl]piperazine-1-carboxylate]
 | 665 nM |  |  | 0.55 ×10⁻⁶ cm/s | 68.6 ×10⁻⁶ cm/s | 125 | C[C@@H]1CN(c2cnc(C(F)(F)F)cn2)C[C@@H](C)N1C(=O)NCCC1CCN(Cc2ccccc2)CC1 [Compound 4A]
 | 520 nM |  |  | 0.53 ×10⁻⁶ cm/s | 51.2 ×10⁻⁶ cm/s | 96.6 | C[C@@H]1CN(c2ncc(C#N)cn2)C[C@H](C)N1C(=O)NCCC1CCN(Cc2ccccc2)CC1 [Compound 3A]
